In patent US6958221B2, “Cell flow apparatus and method for real-time measurements of patient cellular responses” (Caliper Life Sciences, Inc., priority 1996, dated 2005):
Where a SMILES comes first, the peptide text is derived from it. [ ]: non-standard residue; d: D form.

Target: T1, endothelin subtype A receptor ETAR (Homo sapiens, UniProt P25101)
T1 construct: TE-671 cells, human medulloblastoma (ATCC CRL 8805), naturally express endothelin subtype A receptor ETAR; host or cells: TE-671 human medulloblastoma cells
T1 sequence (P25101 21-427): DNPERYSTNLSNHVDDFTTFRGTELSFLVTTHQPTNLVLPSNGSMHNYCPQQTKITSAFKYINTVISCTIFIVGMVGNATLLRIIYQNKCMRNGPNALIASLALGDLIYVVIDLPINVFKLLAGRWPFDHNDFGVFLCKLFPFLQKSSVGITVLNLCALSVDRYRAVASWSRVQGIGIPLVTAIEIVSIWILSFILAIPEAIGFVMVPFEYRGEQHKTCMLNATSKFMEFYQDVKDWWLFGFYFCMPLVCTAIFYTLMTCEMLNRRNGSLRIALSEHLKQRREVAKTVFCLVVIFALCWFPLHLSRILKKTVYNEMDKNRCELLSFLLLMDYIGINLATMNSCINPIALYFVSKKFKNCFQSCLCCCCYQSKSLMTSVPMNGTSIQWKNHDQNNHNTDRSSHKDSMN
Assay: ET-1 induced intracellular calcium mobilization in TE-671 cells (flow apparatus, FURA-2)
Type: cell-based
Method: TE-671 cells, human medulloblastoma (ATCC CRL 8805), naturally express endothelin subtype A receptor ETAR.
The apparatus was a negative pressure computer controlled unit as described above. This run was performed in the presence of several concentrations of ETAR specific competitive antagonist BQ-123 (shown in nanomolar concentration).
TE-671 cells were prepared for use in the cell physiometer of the present invention by growing them in a T75 flask until confluence. The growth media was decanted and the cells were washed twice with Dulbecco's phosphate buffered saline (DPBS) and supplemented with a fresh DPBS containing 2 μM FURA-2AM, which easily penetrates into cell cytoplasm and is hydrolyzed there with nonspecific esterases to form FURA 2, a dye which is sensitive to the ionized form of calcium. After 30 min incubation, the cells were supplemented with the equal volume of fresh DPBS and incubated for further 30 min. The cells, now loaded with the dye, were detached from the flask bottom with 0.05% Trypsin-EDTA solution. The cells were then washed twice with DPBS, containing 0.1% soybean trypsin inhibitor, and resuspended in calcium-free, magnesium-free and phenol red-free Dulbecco's modified Eagle's medium (DMEM).
This gives three fold final dilution for each component of the flow passing through mixing zone 343 and eventually, detector 355. The proportioning valve 327, was programmed for the first, second and third runs to give final BQ-123 concentration of zero, 10 nM and 40 nM, respectively.
The flow rate and the length of the reaction developing line were chosen so that the time interval from the point of mixing the cells with the compound to the point of signal detection in the flow-through optical cell was 40 seconds.

SMILES: CC(C)C[C@@H]1NC(=O)[C@@H](C(C)C)NC(=O)[C@@H]2CCCN2C(=O)[C@@H](CC(=O)O)NC(=O)[C@@H](Cc2c[nH]c3ccccc23)NC1=O [BQ-123] (cyclo(L[dW][dD]P[dV]))
- Kb: 11 nM
- type of inhibition (shift of ET-1 activation curves) (TE-671 cells, activation curves parallel shifted to the right in the presence of BQ-123): competitive type of inhibition
- Ki (TE-671 cells, corresponds to the pA2 value, read-out: inhibition constant, K1): 11 nM
